Where a name gives a salt, the structure may show the parent alone. Read-outs that look alike come from different tables or passages of the source.
Experiments:
VisNR = details: Microsource

Compound: CC[C@H]1OC(=O)[C@H](C)[C@@H](O[C@H]2C[C@@](C)(OC)[C@@H](O)[C@H](C)O2)[C@H](C)[C@@H](O[C@@H]2O[C@H](C)C[C@H](N(C)C)[C@H]2O)[C@](C)(OC)C[C@@H](C)C(=O)[C@H](C)[C@@H](O)[C@]1(C)O [CLARITHROMYCIN]
- activity annotation RpoH (RpoH; NIHCC): CLARITHROMYCIN (2; inactive LdtR & RpoH NIHCC)
- activity annotation LdtR (LdtR; NIHCC): CLARITHROMYCIN (2; inactive LdtR & RpoH NIHCC)

Compound: CN1CCN(c2c(F)cc3c(=O)c(C(=O)O)cn4c3c2SCC4)CC1 [RUFLOXACIN HCl]
- activity annotation RpoH (RpoH; NIHCC): RUFLOXACIN HCl (2; inactive LdtR & RpoH NIHCC)
- activity annotation LdtR (LdtR; NIHCC): RUFLOXACIN HCl (2; inactive LdtR & RpoH NIHCC)

Compound: O=C(O)CN(CCN(CC(=O)O)CC(=O)O)CCN(CC(=O)O)CC(=O)O [Diethylenetriaminepentaacetic acid]
- activity annotation, target not given (LOPAC): Diethylenetriaminepentaacetic acid (1; inactive LOPAC)

Compound: CC(=O)NC[C@H]1CN(c2ccc(N3CCOCC3)c(F)c2)C(=O)O1 [LINEZOLIDE]
- activity annotation, target not given (NIHCC): LINEZOLIDE (1; inactive NIHCC)

Compound: O=c1[nH]cc(F)c(=O)[nH]1 [5-Fluorouracil]
- activity annotation LdtR (LdtR; LOPAC): 5-Fluorouracil (2; inactive LdtR LOPAC)

Compound: CCn1cc(C(=O)O)c(=O)c2cc(F)c(N3CCN(C)CC3)cc21.CS(=O)(=O)O [PEFLOXACIN MESYLATE]
- activity annotation, target not given (NIHCC): PEFLOXACIN MESYLATE (2; inactive NIHCC)

Compound: CCn1cc(C(=O)O)c(=O)c2cc(F)c(N3CCNC(C)C3)c(F)c21.Cl (stereo not shown) [Lomefloxacin hydrochloride]
- activity annotation VisNR (VisNR): Lomefloxacin hydrochloride (2; inactive LOPAC & VisNR Microsource)

Compound: NC(=O)c1ncn([C@@H]2O[C@H](CO)[C@@H](O)[C@H]2O)n1 [Ribavirin]
- activity annotation RpoH (RpoH; Biomol FDA): Ribavirin (2; inactive RpoH Biomol FDA)
